Measurements: patent publication US8114846B2, “Combined treatment with an EGFR kinase inhibitor and an agent that sensitizes tumor cells to the effects of EGFR kinase inhibitors” (OSI Pharmaceuticals, LLC, priority 2006, dated 2012)
Converted amounts (≈) assume the structure as drawn. “Also recorded” adds a separate entry of the source.

Tests used:
H460 cells = test: Cell proliferation (Cell Titer Glo), H460; type: cell-based, human
Protocol: (§1) The cell lines H460, Calu6, SW1573, H1703, H292, H358, HCT-116, HT-29, FET, GEO, SW480, Colo205 CBS, BxPC3, HPAC, CFPAC, MiaPaca-2, Panc1, MDA-MB-468, BT-20, MDA-MB-435 H441, H322, A1165, Igrov-1, Ovcar-3, CA-OV-3, MDAH2774, SW626, SKOV-3, Cal-27, RPMI 2650, and MDA-MB-231 were grown in media as prescribed by the ATCC, containing 10% FCS. Hsc-2, Hsc-4 and OVK-18 were obtained from the Riken Cell Bank and were cultured according to the Riken Cell Bank recommended conditions.

pAkt (S473) = pAkt (S473) in cancer cell lines; type: cell-based
tumor cells = test: Anti-proliferative activity across tumor cell lines; type: cell-based
H292 cells = test: Cell proliferation (Cell Titer Glo), H292; type: cell-based, human; conditions: 10 μM erlotinib, 72 hours; maximal growth inhibition greater than 50% = high sensitivity
Protocol: as §1

BxPC3 cells = test: Cell proliferation (Cell Titer Glo), BxPC3; type: cell-based, human; conditions: 10 μM erlotinib, 72 hours; maximal growth inhibition greater than 50% = high sensitivity
Protocol: as §1

[1] = test system: phosphorylation of S6 (readout for the activity of mTOR); test: Western blot of S6 phosphorylation in tumor cell lines; type: cell-based, human; conditions: 2 hours
Protocol: Preparation of Protein Lysates and Western Blotting:
With the exception of total ErbB3 (obtained from Santa Cruz Biotechnology, Inc., Santa Cruz, Calif.), all antibodies were obtained from Cell Signaling Technology, Inc. (Danvers, Mass.). For analysis of erlotinib's effect on the phosphorylation of downstream signaling proteins, cell lines were grown to approximately 70% confluency, at which time erlotinib was added at the indicated concentration, and cells were incubated at 37° C. for two hours. Where indicated, 10 ng/ml EGF ligand was added for 5 minutes. The media was removed, cells were washed two times with PBS, and cells were lysed as previously described.

Calu-6 NSCLC tumor cells = test: Calu6 xenograft model; type: in vivo, mice; conditions: day 19; Tarceva 100 mg/kg daily oral, or rapamycin 4 mg/kg i.p. day 1, 8, 15
Text: Female CD-1 nu/nu mice (Charles River Laboratories, Wilmington, Mass.) were implanted with harvested Calu-6 NSCLC tumor cells in a single subcutaneous site on the flank of the mice in the axillary region. Tumors were allowed to grow to 200+50 mm^3, at which time the animals were sorted into treatment groups (see below) of 8 animals per group, having approximately equal body weight (+/−1 g) within a group, and tattooed on the tail for permanent identification. Tumor volumes and body weights were determined twice weekly. The tumor volume was determined by measuring in two directions with vernier calipers and calculated using the formula: Tumor volume=(length×width^2)/2. The data were plotted as the % change in mean values of tumor volume and body weight for each group. The tumor growth inhibition (% TGI) was determined as % TGI=100(1−Wt/Wc): where Wt is the median tumor volume of the treated group at time x and We is the median tumor volume of the control group at time x. Tarceva was dosed in a 6% Captisol (CyDex, Inc) in WFI (Water for Injection) solution and all control animals were dosed with an equal volume of the vehicle. Tarceva animals were dosed by oral gavage once a day for 18 days and the % TGI measured on day 19. Rapamycin was dosed in 4% ethanol/5% PEG400/5% Tween 80 in WFI. […]

[2] = Solubility limit of erlotinib; type: physicochemical
three ovarian cell lines = test: Apoptosis (Caspase 3/7 Glo), ovarian cell lines; type: cell-based, human; conditions: 20 μM Compound A or 10 μM erlotinib
Protocol: as §1

[3] = test system: one ovarian and one HNSCC cell line; test: Apoptosis (Caspase 3/7 Glo), one ovarian and one HNSCC cell line; type: cell-based, human
Protocol: as §1

Calu6 cells = conditions: 10 μM erlotinib, 72 hours; maximal growth inhibition greater than 50% = high sensitivity
Protocol: (§2) Measurement of Cell Proliferation: Cell proliferation was determined using the Cell Titer Glo assay (Promega Corporation, Madison, Wisc.). Cell lines were seeded at a density of 3000 cells per well in a 96-well plate. 24 hours after plating cells were dosed with varying concentrations of drug, either as a single agent or in combination. The signal for Cell Titer Glo was determined 72 hours after dosing.
(§3) Analysis of Additivity and Synergy: The Bliss additivism model was used to classify the effect of combining rapamycin and erlotinib as additive, synergistic, or antagonistic. A theoretical curve was calculated for combined inhibition using the equation: Ebliss=EA+EB−EA*EB, where EA and EB are the fractional inhibitions obtained by drug A alone and drug B alone at specific concentrations. […] If the experimentally measured fractional inhibition is less than Ebliss the combination was said to be synergistic. If the experimentally measured fractional inhibition is greater than Ebliss the combination was said to be antagonistic. For dose response curves, the Bliss additivity value was calculated for varying doses of drug A when combined with a constant dose of drug B. This allowed an assessment as to whether drug B affected the potency of drug A or shifted its intrinsic activity. All plots were generated using PRISM® software (Graphpad Software, San Diego, Calif.).

HCT-116 cells = conditions: 10 μM erlotinib, 72 hours; maximal growth inhibition greater than 50% = high sensitivity
Protocol: as §2, §3

H358 cells = conditions: 10 μM erlotinib, 72 hours; maximal growth inhibition greater than 50% = high sensitivity
Protocol: as §2, §3

[4] = test system: 22 cell lines derived from NSCLC, colon, pancreatic, and breast tumors; test: cells; conditions: Homo sapiens, read-out: IC50 value
Protocol: as §2, §3

With `CO[C@H]1C[C@@H]2CC[C@@H](C)[C@@](O)(O2)C(=O)C(=O)N2CCCC[C@H]2C(=O)O[C@H]([C@H](C)C[C@@H]2CC[C@@H](O)[C@H](OC)C2)CC(=O)[C@H](C)/C=C(\C)[C@@H](O)[C@@H](OC)C(=O)[C@H](C)C[C@H](C)/C=C/C=C/C=C/1C` [rapamycin] the Emax (H460 cells; Homo sapiens, NCI-H460, rapamycin without erlotinib, read-out: maximal efficacy (growth inhibition)) was 34%, the IC50 (H460 cells; Homo sapiens, NCI-H460, rapamycin without erlotinib, read-out: potency (growth inhibition)) was 0.267 nM and the “cancer cell lines in which pAkt (S473) is inhibited” value (pAkt (S473)) was ~20%. For the same compound, the “cell lines in which treatment increases pAkt (S473)” value (pAkt (S473)) was ~65% and the “cell lines in a given tumor type that are insensitive” value (tumor cells) was “approximately 50%”.

In the case of `C#Cc1cccc(Nc2ncnc3cc(OCCOC)c(OCCOC)cc23)c1` [erlotinib, [6,7-bis(2-methoxyethoxy)-4-quinazolin-4-yl]-(3-ethynylphenyl) amine], the “sensitivity to growth inhibition by erlotinib” value (H460 cells; 10 μM erlotinib, 72 hours, maximal growth inhibition greater than 50% = high sensitivity) is reported as “relatively insensitive”, the “sensitivity to growth inhibition by erlotinib” value (H292 cells) is reported as “most sensitive” and the “sensitivity to growth inhibition by erlotinib” value (BxPC3 cells) is reported as “most sensitive”. For the same compound, the “down-regulation of phosphorylation of S6” value ([1]; relatively insensitive cell lines that have undergone EMT (H460, Calu6, HCT-116)) was “less pronounced down-regulation”, the “down-regulation of phosphorylation of S6” value ([1]; three sensitive epithelial cell lines (H292, H358, BxPC3)) was “efficiently down-regulate” and the “reduction in tumor growth as single agent” value (Calu-6 NSCLC tumor cells) was “no statistically significant reduction; also recorded: Neither rapamycin or erlotinib showed significant reduction”. For the same compound, the solubility [2] was 10 µM (≈ 3.93 µg/mL), the “apoptosis relative to DMSO treated cells, single agent” value (three ovarian cell lines) was “increased apoptosis” and the “apoptosis relative to DMSO treated cells, single agent” value [3] was “modest increase”. The “sensitivity to growth inhibition by erlotinib” value (Calu6 cells) was “relatively insensitive”, the “sensitivity to growth inhibition by erlotinib” value (HCT-116 cells) was “relatively insensitive” and the “sensitivity to growth inhibition by erlotinib” value (H358 cells) was “most sensitive”. The IC50 [4] was > 10000 nM.
